Test results published in ChEMBL document CHEMBL5291721, “A preclinical secondary pharmacology resource illuminates target-adverse drug reaction associations of marketed drugs” (Nat Commun, 2023).

Key:
[1] = target: Voltage-gated inwardly rectifying potassium channel KCNH2 (Homo sapiens, UniProt Q12809); format: functional; settings: read-out: AC50
[2] = target: Neuronal acetylcholine receptor subunit alpha-4 (Homo sapiens, UniProt P43681)
[3] = target: 5-hydroxytryptamine receptor 2A (Homo sapiens, UniProt P28223); format: functional, cell-based
Sequence of 5-hydroxytryptamine receptor 2A (P28223 whole entry): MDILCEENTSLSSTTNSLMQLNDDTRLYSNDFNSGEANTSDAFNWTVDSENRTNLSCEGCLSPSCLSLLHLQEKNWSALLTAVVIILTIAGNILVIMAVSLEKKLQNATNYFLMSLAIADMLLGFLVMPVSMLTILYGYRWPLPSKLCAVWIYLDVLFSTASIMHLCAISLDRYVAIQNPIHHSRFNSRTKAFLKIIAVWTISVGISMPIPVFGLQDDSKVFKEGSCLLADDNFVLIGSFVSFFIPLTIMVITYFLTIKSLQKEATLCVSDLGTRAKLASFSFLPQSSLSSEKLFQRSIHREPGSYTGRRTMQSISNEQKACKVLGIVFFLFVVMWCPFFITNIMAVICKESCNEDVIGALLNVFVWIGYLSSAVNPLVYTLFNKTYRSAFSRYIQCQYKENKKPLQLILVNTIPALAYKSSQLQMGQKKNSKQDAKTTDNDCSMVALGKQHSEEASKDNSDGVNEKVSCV

Melanocortin receptor 3 = Melanocortin receptor 3 (Homo sapiens, UniProt P41968)
Sequence of Melanocortin receptor 3 (P41968 whole entry): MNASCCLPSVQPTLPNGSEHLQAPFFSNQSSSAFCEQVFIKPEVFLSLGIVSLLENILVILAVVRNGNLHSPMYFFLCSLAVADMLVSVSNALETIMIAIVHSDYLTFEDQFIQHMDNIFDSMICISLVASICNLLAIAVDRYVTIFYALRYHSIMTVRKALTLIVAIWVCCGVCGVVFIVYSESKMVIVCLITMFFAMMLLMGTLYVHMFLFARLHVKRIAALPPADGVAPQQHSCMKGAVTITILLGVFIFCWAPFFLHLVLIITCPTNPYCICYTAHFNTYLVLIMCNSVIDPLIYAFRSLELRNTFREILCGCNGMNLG

Cannabinoid receptor 1 = Cannabinoid receptor 1 (Homo sapiens, UniProt P21554); format: functional, cell-based
Sequence of Cannabinoid receptor 1 (P21554 whole entry): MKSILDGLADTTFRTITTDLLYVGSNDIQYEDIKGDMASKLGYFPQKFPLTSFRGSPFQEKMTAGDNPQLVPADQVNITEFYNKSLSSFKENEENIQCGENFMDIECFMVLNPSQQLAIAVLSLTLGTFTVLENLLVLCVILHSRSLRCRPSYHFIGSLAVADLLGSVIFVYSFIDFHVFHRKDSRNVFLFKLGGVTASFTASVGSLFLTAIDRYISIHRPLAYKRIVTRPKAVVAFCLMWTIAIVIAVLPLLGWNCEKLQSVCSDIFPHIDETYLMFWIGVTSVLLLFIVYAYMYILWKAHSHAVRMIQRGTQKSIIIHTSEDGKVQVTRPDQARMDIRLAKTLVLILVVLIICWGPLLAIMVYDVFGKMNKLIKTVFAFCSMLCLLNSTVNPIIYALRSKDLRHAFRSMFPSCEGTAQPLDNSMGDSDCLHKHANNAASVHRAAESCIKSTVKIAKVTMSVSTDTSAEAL

Mu-type opioid receptor = Mu-type opioid receptor (Homo sapiens, UniProt P35372)
Sequence of Mu-type opioid receptor (P35372 whole entry): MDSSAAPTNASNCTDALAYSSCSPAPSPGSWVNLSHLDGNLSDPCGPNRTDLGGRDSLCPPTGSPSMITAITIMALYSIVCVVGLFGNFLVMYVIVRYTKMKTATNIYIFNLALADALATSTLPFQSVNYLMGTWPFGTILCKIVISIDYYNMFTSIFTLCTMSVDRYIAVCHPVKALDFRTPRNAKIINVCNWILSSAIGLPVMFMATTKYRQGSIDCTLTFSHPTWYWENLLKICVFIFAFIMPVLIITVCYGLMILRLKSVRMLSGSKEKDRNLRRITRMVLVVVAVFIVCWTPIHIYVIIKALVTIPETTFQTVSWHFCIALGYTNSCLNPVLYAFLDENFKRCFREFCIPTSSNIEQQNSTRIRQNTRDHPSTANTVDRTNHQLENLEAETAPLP

[4] = target: 3',5'-cyclic-AMP phosphodiesterase 4D (Homo sapiens, UniProt Q08499); format: functional
Sequence of 3',5'-cyclic-AMP phosphodiesterase 4D (Q08499 whole entry): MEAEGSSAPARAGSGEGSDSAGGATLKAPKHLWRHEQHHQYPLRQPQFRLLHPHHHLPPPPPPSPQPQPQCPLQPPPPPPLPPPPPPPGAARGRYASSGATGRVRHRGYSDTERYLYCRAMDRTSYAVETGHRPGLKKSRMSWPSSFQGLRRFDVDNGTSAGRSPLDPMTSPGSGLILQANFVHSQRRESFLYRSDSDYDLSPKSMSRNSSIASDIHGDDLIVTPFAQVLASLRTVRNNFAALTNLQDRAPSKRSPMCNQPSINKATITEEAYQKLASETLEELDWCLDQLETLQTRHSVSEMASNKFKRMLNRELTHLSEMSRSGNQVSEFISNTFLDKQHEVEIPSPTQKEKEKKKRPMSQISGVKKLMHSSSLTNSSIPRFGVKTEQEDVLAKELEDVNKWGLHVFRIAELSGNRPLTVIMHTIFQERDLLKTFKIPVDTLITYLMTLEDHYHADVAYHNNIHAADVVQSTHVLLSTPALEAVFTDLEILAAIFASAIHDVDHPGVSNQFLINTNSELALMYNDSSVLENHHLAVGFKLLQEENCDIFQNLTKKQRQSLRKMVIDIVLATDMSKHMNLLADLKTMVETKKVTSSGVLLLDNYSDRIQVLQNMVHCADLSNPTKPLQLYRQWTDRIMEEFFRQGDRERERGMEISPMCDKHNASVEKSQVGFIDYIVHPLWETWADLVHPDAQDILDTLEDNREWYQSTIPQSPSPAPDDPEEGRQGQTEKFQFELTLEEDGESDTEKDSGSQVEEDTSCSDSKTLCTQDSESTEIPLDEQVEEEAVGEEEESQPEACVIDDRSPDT

Adenosine receptor A3 = target: T1, Adenosine receptor A3 (Homo sapiens, UniProt P0DMS8)
T1 sequence (P0DMS8 whole entry): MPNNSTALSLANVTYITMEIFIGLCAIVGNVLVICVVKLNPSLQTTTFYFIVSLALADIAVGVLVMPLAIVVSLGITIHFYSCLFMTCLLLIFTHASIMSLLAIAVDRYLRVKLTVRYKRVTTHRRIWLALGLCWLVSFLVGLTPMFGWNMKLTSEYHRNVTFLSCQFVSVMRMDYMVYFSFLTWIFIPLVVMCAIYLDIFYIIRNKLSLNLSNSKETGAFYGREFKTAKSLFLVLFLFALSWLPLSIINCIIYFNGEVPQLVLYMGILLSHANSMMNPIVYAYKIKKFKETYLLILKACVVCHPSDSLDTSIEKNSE

[5] = target: T2, Equilibrative nucleoside transporter 1 (Homo sapiens, UniProt Q99808)
T2 sequence (Q99808 whole entry): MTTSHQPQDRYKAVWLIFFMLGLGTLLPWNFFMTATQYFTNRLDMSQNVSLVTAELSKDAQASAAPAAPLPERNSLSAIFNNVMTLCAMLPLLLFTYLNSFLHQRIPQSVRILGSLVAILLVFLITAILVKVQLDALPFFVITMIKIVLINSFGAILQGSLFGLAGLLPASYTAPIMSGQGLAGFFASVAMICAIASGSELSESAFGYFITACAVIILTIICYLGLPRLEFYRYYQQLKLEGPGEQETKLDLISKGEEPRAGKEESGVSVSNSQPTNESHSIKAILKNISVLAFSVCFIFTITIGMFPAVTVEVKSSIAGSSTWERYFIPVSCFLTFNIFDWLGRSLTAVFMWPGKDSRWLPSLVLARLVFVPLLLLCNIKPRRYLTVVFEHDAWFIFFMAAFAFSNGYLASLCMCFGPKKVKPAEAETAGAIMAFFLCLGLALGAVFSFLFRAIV

[6] = target: T3, 5-hydroxytryptamine receptor 3A (Homo sapiens, UniProt P46098); format: functional
T3 sequence (P46098 whole entry): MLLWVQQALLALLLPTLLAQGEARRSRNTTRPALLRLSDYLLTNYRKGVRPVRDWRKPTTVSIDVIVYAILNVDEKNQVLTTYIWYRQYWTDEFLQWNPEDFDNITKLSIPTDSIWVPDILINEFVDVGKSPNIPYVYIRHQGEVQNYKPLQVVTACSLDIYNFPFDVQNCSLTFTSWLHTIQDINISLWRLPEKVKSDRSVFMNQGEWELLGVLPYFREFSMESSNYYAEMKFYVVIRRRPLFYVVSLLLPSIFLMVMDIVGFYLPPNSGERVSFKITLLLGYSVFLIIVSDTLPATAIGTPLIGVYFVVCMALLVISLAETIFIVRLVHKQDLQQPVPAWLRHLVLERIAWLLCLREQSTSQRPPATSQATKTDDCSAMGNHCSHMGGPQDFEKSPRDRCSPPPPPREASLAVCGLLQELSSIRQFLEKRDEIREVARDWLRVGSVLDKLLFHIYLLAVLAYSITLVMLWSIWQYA

Thromboxane A2 receptor [7] = target: T4, Thromboxane A2 receptor (Homo sapiens, UniProt P21731)
T4 sequence (P21731 whole entry): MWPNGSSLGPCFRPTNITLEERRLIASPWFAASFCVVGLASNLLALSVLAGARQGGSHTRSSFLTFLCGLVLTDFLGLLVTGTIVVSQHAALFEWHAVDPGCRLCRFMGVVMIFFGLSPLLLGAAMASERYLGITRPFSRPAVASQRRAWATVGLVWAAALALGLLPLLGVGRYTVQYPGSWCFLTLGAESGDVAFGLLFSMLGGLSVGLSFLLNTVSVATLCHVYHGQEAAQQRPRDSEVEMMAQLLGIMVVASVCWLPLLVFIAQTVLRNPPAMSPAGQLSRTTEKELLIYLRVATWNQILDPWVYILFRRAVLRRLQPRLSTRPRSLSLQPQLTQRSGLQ

Motilin receptor = Motilin receptor (Homo sapiens, UniProt O43193)
Sequence of Motilin receptor (O43193 whole entry): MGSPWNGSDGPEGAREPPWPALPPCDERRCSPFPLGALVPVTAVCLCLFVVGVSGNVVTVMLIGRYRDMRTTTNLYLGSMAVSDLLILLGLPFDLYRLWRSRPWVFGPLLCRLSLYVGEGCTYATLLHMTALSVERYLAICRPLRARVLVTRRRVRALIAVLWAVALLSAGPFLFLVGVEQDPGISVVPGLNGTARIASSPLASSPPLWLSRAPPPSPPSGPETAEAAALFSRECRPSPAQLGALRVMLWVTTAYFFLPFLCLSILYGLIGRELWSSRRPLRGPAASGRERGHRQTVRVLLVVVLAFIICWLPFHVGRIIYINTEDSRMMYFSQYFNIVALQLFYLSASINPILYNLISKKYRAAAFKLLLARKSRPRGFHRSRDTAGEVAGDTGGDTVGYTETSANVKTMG

[8] = target: Sodium-dependent serotonin transporter (Homo sapiens, UniProt P31645)
[9] = target: Sodium-dependent dopamine transporter (Homo sapiens, UniProt Q01959)
D(1A) dopamine receptor = D(1A) dopamine receptor (Homo sapiens, UniProt P21728); format: functional, cell-based
Sequence of D(1A) dopamine receptor (P21728 whole entry): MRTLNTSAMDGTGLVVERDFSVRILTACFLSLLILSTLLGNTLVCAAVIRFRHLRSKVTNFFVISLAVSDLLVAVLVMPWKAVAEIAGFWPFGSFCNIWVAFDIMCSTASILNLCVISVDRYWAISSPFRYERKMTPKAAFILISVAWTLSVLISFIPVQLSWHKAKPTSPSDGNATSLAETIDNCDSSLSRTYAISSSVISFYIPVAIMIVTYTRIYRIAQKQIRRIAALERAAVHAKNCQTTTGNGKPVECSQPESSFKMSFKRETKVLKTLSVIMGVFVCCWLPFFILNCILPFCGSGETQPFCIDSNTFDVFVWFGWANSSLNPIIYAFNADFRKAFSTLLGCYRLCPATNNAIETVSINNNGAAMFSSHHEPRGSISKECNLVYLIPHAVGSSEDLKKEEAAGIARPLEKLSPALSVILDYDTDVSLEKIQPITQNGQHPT

Vasopressin V2 receptor = Vasopressin V2 receptor (Homo sapiens, UniProt P30518)
Sequence of Vasopressin V2 receptor (P30518 whole entry): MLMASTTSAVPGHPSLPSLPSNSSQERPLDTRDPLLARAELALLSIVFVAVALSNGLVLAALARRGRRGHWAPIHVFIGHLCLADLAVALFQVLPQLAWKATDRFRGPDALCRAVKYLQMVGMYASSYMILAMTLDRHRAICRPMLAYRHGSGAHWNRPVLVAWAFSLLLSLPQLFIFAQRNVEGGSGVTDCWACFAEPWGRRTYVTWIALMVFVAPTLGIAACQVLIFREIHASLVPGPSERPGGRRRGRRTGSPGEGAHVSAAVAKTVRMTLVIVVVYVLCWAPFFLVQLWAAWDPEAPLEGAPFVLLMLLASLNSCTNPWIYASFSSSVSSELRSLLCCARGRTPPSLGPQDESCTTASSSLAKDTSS

Thromboxane A2 receptor [10] = target: T4, Thromboxane A2 receptor; format: functional, cell-based
[11] = target: T5, Amine oxidase [flavin-containing] A (Homo sapiens, UniProt P21397); format: functional
T5 sequence (P21397 whole entry): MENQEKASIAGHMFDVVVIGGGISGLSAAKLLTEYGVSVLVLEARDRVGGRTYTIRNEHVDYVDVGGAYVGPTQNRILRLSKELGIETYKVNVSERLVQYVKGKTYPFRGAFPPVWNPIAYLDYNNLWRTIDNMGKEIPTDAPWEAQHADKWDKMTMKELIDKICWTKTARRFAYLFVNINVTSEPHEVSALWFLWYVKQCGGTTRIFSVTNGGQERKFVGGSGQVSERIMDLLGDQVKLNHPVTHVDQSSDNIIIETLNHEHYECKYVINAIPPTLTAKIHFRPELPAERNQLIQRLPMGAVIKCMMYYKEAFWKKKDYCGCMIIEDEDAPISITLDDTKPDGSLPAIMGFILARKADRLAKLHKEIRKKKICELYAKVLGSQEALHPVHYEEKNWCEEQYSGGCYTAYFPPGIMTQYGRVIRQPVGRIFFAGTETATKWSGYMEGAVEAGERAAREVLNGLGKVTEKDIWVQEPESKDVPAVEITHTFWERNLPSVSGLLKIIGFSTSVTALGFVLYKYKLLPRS
Note: assay procedure not described here.

Sequence of Voltage-gated inwardly rectifying potassium channel KCNH2 (Q12809 whole entry): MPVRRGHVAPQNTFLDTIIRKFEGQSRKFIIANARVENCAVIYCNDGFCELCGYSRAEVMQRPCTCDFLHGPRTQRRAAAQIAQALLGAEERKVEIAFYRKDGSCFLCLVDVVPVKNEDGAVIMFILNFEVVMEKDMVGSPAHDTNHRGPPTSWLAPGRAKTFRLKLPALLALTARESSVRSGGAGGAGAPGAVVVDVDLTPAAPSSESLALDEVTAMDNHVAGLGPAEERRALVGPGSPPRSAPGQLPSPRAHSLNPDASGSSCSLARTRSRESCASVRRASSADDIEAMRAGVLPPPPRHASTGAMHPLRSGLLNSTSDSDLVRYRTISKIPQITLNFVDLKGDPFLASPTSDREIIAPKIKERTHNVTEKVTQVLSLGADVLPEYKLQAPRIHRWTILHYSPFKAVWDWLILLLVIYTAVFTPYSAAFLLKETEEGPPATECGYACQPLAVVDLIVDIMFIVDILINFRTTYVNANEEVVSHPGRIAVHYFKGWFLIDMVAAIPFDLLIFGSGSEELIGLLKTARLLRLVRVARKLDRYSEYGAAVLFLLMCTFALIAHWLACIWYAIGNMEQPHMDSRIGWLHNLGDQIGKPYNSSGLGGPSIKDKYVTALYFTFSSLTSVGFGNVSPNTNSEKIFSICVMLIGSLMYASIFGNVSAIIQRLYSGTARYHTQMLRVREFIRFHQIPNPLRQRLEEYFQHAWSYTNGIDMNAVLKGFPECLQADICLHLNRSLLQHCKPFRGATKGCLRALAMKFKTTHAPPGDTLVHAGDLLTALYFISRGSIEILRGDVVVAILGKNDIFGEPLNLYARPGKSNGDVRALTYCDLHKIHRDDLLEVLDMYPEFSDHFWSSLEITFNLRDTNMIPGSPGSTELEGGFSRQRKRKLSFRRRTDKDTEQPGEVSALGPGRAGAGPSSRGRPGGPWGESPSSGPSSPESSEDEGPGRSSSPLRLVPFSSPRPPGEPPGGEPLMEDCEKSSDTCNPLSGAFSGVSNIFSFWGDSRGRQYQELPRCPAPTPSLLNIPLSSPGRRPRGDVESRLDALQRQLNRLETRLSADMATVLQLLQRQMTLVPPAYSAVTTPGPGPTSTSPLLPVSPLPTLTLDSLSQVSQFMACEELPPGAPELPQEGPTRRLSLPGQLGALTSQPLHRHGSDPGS

AC50 (Thromboxane A2 receptor [7]) [µM]	AC50 (Vasopressin V2 receptor) [µM]	Structure (SMILES)	AC50 [1] [µM]	AC50 [2] [µM]	AC50 [3] [µM]	AC50 (Melanocortin receptor 3) [µM]	AC50 (Cannabinoid receptor 1) [µM]	AC50 (Mu-type opioid receptor) [µM]	AC50 [4] [µM]	AC50 (Adenosine receptor A3) [µM]	AC50 [5] [µM]	AC50 [6] [µM]	AC50 (Motilin receptor) [µM]	AC50 [8] [µM]	AC50 [9] [µM]	AC50 (D(1A) dopamine receptor) [µM]	AC50 (Thromboxane A2 receptor [10]) [µM]	AC50 [11] [µM]
–	–	COc1ccc(CC(C)(C)NC[C@H](O)c2cc(O)cc3c2OCC(=O)N3)cc1 [OLODATEROL]	6.3	> 30	12.8	> 30	> 30	> 30	21	> 30	> 30	> 30	> 30	0.0608	11	> 30	–	–
> 10	> 10	Nc1ccn([C@H]2CC[C@@H](CO)O2)c(=O)n1 [ZALCITABINE]	> 30	> 10	> 10	> 10	> 30	> 30	> 30	> 10	> 10	> 30	> 10	> 10	> 10	> 10	–	–
–	–	c1cnc(N2CCN(Cc3ccc4c(c3)OCO4)CC2)nc1 [PIRIBEDIL]	19	> 30	> 30	> 30	> 30	> 30	> 30	> 30	> 30	> 30	> 30	12	> 30	> 30	–	–
–	–	COCCCN1CCC(NC(=O)c2cc(Cl)c(N)c3c2OCC3)CC1 [PRUCALOPRIDE]	> 30	> 30	> 30	> 30	> 30	> 30	> 30	> 30	> 30	28	> 30	> 30	> 30	> 30	> 30	> 30
–	–	O=C(OCC(O)CO)c1ccccc1Nc1ccnc2cc(Cl)ccc12 (configuration not stated) [GLAFENINE]	1.4	> 30	> 30	> 30	> 30	> 30	0.17	7.2	8.1	> 30	28	> 30	> 30	> 30	> 30	> 30
8.66	–	CNC(=O)c1ccccc1Sc1ccc2c(/C=C/c3ccccn3)n[nH]c2c1 [AXITINIB]	> 30	> 30	> 30	> 30	> 30	> 30	> 30	4.52	> 30	> 30	> 30	> 30	0.07	> 30	–	–
> 10	> 10	NS(=O)(=O)Cc1noc2ccccc12 [ZONISAMIDE]	> 30	> 10	> 10	> 10	–	> 30	> 30	> 10	> 10	> 30	> 10	> 10	> 10	> 10	–	–
–	–	CNC1Cc2ccccc2N(C)c2ccccc21 (configuration not stated) [METAPRAMINE]	5.9	> 30	14	> 30	> 30	> 30	> 30	> 30	> 30	> 30	> 30	14	> 30	> 30	–	–
> 30	> 30	CN1C(C(=O)Nc2ccccn2)=C(O)c2sc(Cl)cc2S1(=O)=O [LORNOXICAM]	> 30	> 10	> 30	> 30	> 30	> 30	> 30	> 30	> 30	> 30	> 10	> 30	> 30	> 10	–	–

Structure (SMILES)	AC50 (Thromboxane A2 receptor [7]) [µM]	AC50 (Vasopressin V2 receptor) [µM]	AC50 [1] [µM]	AC50 [2] [µM]	AC50 [3] [µM]	AC50 (Melanocortin receptor 3) [µM]	AC50 (Cannabinoid receptor 1) [µM]	AC50 (Mu-type opioid receptor) [µM]	AC50 [4] [µM]	AC50 (Adenosine receptor A3) [µM]	AC50 [5] [µM]	AC50 [6] [µM]	AC50 (Motilin receptor) [µM]	AC50 [8] [µM]	AC50 [9] [µM]	AC50 (D(1A) dopamine receptor) [µM]	AC50 (Thromboxane A2 receptor [10]) [µM]	AC50 [11] [µM]
Cn1nnc2c(C(N)=O)ncn2c1=O [TEMOZOLOMIDE]	> 30	> 30	> 30	> 30	> 30	> 30	> 30	> 30	> 30	> 30	> 30	> 30	> 30	> 30	> 30	> 30	–	–
